Earlier results in publication PMC9851200, “Multiparameter phenotypic screening for endogenous TFEB and TFE3 translocation identifies novel chemical series modulating lysosome function” (Autophagy, 2022).

Experiments:
Parameters in all cases: method as in original PKIS2 published data
[1] = biological target: T1, kinases (KINOMEscan panel) (Homo sapiens, UniProt Q92772); conditions: CDKL2; Published KINOMEscan; ref original PKIS2 published data; cited from earlier work
T1 sequence (Q92772 1-493): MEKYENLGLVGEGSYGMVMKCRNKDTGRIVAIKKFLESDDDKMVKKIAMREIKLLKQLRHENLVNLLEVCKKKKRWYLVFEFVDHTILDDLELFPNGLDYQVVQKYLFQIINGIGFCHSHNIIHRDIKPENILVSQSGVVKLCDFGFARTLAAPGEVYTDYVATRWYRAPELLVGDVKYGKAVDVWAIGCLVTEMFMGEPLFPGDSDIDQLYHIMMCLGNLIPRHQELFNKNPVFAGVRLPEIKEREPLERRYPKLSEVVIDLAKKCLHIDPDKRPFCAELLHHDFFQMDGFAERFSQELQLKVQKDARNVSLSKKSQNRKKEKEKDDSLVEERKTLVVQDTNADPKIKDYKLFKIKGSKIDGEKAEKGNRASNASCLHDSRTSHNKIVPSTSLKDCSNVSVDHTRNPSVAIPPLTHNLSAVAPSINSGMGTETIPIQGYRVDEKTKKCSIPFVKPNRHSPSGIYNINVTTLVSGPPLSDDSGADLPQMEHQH

[2] = biological target: kinases (KINOMEscan panel) (Homo sapiens, UniProt Q00532); conditions: CDKL1; Published KINOMEscan; ref original PKIS2 published data; cited from earlier work
Sequence of kinases (KINOMEscan panel) (Homo sapiens, UniProt Q00532) (Q00532 whole entry): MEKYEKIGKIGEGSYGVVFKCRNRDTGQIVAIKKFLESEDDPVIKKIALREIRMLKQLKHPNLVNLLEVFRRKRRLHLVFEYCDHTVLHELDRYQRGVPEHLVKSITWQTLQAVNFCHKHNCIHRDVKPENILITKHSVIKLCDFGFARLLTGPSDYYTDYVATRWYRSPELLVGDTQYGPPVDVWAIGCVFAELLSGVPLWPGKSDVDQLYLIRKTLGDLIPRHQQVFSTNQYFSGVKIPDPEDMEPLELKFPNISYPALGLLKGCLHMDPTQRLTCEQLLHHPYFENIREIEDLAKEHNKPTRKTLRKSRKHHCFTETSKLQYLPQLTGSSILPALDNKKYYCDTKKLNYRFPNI

[3] = biological target: kinases (KINOMEscan panel) (Homo sapiens, UniProt P48736); conditions: kinase PIK3CG; Published KINOMEscan; ref original PKIS2 published data; cited from earlier work
Sequence of kinases (KINOMEscan panel) (Homo sapiens, UniProt P48736) (P48736 whole entry): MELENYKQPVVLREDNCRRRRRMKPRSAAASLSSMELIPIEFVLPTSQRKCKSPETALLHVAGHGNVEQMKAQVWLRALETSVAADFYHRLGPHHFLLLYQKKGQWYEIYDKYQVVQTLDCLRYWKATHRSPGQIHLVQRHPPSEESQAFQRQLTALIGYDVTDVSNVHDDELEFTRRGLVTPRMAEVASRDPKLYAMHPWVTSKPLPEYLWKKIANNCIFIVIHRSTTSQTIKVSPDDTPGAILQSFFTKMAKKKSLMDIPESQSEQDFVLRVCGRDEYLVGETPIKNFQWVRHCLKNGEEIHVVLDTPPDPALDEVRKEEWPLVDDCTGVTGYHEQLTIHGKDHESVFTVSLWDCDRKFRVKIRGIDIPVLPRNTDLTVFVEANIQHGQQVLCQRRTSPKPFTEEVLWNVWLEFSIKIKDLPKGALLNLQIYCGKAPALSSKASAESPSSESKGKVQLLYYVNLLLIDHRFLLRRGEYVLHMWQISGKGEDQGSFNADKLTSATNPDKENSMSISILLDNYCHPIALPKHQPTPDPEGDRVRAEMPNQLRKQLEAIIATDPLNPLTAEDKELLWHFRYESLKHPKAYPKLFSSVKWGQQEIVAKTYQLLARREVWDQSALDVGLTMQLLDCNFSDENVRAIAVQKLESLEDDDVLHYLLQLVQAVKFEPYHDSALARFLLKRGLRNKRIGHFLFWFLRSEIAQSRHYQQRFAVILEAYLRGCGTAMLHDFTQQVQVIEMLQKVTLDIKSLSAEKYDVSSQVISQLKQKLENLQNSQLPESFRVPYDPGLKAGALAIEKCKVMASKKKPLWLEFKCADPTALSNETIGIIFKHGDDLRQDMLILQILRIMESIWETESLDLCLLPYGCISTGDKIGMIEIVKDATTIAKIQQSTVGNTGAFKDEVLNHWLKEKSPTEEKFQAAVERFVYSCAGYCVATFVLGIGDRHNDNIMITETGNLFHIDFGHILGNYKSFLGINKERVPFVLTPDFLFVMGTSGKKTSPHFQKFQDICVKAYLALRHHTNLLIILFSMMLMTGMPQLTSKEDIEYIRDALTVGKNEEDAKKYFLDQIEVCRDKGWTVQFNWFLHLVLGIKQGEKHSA

[4] = biological target: T2, kinases (KINOMEscan panel) (Homo sapiens, UniProt O75747); conditions: Published KINOMEscan; ref original PKIS2 published data; cited from earlier work
T2 sequence (O75747 1-1486): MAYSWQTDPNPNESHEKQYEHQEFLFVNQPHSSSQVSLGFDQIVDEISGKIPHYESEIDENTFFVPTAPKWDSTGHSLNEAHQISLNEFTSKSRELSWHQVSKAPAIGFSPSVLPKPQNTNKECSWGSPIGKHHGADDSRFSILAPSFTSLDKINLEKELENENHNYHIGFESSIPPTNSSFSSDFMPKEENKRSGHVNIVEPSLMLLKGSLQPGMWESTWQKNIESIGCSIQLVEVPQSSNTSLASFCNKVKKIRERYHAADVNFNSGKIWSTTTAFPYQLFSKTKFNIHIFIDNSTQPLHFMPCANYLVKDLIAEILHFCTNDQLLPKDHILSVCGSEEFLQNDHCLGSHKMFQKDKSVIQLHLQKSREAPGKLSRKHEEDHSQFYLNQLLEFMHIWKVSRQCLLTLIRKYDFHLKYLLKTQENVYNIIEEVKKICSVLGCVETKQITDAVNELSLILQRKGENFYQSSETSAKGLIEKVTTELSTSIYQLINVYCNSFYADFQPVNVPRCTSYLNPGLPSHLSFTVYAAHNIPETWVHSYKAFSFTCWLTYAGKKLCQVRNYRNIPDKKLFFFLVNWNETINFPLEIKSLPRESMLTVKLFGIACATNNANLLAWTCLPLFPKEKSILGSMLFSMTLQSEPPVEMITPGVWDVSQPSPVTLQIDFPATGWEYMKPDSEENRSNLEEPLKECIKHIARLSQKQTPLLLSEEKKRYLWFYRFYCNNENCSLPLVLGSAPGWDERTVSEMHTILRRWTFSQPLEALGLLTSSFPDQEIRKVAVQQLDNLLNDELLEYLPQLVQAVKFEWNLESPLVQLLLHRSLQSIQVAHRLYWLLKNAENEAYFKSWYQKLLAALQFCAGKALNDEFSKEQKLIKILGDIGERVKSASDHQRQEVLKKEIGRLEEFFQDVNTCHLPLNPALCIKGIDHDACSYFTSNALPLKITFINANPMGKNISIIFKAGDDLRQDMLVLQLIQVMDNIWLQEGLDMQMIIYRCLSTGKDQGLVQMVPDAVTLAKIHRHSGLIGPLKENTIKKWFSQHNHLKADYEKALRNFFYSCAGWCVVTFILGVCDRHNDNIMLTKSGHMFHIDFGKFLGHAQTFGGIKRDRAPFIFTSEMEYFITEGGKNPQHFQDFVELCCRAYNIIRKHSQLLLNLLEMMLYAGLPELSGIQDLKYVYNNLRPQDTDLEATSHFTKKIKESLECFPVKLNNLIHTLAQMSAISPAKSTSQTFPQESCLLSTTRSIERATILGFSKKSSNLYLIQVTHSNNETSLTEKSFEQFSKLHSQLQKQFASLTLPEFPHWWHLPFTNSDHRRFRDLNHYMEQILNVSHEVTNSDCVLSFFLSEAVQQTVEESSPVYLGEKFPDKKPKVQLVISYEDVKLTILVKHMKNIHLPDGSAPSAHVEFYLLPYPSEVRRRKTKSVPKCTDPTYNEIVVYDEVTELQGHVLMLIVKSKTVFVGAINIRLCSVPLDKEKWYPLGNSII

Structure (SMILES): Cc1cccc(-c2nc(Nc3ccncc3)c3ccccc3n2)n1 [NK215]
- KINOMEscan CDKL2 [1]: 10
- KINOMEscan CDKL1 [2]: 47
- KINOMEscan PIK3CG [3]: 0
- KINOMEscan PIK3C2G [4]: 0
